Test results: patent US9078929B2, “ε-Polylysine conjugates and the use thereof” (Merck Patent GmbH, priority 2009, dated 2015)

Assays:
proteases = conditions: in contrast to α-polylysine; cited from earlier work
[1] = Comparative planar scintigraphs, rat model; format: in vivo
Description: (§1) The uptake of ^99mTc-MAG3 and of ^99mTc-DMSA are compared with the uptake of (ε-L-polylysine-DOTA, loaded with ^111In) in the rat and mouse model in planar scintigraphs.

[2] = Comparative planar scintigraphs, mouse model; format: in vivo
Description: as §1

ε-polylysine
enzymatic degradation by proteases (proteases): not enzymatically degraded

O=C(O)CNC(=O)CNC(=O)CNC(=O)CS [^99mTc-MAG3, mercaptoacetyltriglycine, metal not drawn]
kidney to background ratio compared with ε-L-polylysine-DOTA loaded with 111In [1]: worse kidney to background ratio
kidney to background ratio compared with ε-L-polylysine-DOTA loaded with 111In [2]: worse kidney to background ratio
